Laboratory results published in ChEMBL document CHEMBL1201862, “PubChem BioAssay data set” (2004).
Active and inactive are the calls of the source.

Legend:
[1] = target: SWI/SNF-related matrix-associated actin-dependent regulator of chromatin subfamily A member 2 (Homo sapiens, UniProt P51531); assay: Luminescence-based cell-based high throughput dose response assay to identify activators of the function of SWI/SNF related, matrix associated, actin dependent regulator of chromatin, subfamily a, member 2 (SMARCA2, BRM).; assay type: functional
SWI/SNF-related matrix-associated actin-dependent regulator of chromatin subfamily A member 2, sequence (P51531 whole entry): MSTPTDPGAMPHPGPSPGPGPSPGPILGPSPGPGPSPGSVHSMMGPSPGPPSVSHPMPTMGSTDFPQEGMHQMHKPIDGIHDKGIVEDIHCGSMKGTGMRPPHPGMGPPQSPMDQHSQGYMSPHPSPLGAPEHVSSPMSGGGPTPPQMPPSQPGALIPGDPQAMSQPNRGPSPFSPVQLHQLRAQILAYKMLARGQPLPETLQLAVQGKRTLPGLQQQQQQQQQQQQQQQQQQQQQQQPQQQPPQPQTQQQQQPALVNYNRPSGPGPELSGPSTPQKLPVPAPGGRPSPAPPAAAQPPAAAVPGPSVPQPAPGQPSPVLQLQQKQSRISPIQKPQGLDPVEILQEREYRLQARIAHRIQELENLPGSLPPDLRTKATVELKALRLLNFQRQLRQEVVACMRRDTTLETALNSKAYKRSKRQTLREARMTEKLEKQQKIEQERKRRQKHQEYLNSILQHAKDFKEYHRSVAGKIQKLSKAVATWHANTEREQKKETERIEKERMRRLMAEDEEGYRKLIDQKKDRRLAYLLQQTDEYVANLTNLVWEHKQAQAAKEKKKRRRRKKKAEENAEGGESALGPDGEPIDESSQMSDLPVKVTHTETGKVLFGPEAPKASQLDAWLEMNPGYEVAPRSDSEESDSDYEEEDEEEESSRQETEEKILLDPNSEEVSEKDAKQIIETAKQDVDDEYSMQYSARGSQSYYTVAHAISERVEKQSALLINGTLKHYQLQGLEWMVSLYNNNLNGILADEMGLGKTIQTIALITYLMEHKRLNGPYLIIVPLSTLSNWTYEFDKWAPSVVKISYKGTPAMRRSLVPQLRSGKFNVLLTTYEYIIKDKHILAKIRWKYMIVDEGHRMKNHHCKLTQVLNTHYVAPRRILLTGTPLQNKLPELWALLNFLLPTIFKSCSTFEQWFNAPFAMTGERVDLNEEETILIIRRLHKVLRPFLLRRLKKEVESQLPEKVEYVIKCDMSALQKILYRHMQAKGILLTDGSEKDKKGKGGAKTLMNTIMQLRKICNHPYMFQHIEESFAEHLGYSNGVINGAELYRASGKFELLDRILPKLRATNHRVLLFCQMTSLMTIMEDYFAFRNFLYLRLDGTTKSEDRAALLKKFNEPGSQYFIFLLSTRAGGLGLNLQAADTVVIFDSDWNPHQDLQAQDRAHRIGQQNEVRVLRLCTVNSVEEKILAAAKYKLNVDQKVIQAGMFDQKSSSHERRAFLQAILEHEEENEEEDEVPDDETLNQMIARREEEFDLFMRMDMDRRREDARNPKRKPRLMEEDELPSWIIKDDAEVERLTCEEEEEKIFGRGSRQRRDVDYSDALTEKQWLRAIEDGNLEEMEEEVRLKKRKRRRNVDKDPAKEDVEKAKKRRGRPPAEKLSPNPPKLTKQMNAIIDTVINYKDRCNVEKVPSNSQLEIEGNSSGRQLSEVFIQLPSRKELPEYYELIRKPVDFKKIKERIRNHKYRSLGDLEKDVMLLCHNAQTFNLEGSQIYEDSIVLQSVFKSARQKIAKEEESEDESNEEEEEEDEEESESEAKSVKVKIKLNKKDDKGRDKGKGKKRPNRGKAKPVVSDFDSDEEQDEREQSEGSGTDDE

[2] = Counterscreen for activators of the function of SWI/SNF related, matrix associated, actin dependent regulator of chromatin, subfamily a, member 2 (SMARCA2, BRM): Luminescence-based cell-based high throughput dose response assay to identify non-selective compounds using the VP16 reporter assay.; assay type: functional
[3] = target: T1, Scavenger receptor class B member 1 (Mus musculus, UniProt Q61009); assay: mouse SR-BI DiI-HDL transfer blockers – ldlA[mSR-BI] CHO cells, fluorescence plate reader, dry powder, set 9, dose response (AID 623880); assay type: functional, cell-based
T1 sequence (Q61009 whole entry): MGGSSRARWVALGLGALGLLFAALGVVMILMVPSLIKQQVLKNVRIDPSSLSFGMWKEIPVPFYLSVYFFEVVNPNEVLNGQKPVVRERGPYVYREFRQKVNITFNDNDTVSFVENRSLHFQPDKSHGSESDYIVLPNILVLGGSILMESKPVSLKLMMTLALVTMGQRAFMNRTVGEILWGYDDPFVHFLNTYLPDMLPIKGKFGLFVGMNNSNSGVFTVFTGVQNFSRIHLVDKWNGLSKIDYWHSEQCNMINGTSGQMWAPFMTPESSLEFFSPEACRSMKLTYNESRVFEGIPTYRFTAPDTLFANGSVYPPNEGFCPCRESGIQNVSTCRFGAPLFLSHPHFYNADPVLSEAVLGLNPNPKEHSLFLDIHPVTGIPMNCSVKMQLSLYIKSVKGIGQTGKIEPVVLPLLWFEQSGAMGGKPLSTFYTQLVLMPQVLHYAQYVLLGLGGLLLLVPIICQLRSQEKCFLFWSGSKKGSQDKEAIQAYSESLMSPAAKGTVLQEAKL

[4] = target: T1, Scavenger receptor class B member 1; assay: blockers of DiI-HDL lipid transfer via SR-BI – cell-based, ldlA[mSR-BI] CHO, DiI fluorescence, dry powder, set 10, dose response (AID 624029); assay type: functional
[5] = target: Botulinum neurotoxin type F (Clostridium botulinum, UniProt P30996); assay: High-throughput multiplex microsphere dose response for inhibitors of toxin protease, specifically Botulinum neurotoxin light chain F protease, compounds from Cherry Pick 02.; assay type: functional; settings: read-out: EC50_MICROM
Botulinum neurotoxin type F, sequence (P30996 1-436 limits assumed): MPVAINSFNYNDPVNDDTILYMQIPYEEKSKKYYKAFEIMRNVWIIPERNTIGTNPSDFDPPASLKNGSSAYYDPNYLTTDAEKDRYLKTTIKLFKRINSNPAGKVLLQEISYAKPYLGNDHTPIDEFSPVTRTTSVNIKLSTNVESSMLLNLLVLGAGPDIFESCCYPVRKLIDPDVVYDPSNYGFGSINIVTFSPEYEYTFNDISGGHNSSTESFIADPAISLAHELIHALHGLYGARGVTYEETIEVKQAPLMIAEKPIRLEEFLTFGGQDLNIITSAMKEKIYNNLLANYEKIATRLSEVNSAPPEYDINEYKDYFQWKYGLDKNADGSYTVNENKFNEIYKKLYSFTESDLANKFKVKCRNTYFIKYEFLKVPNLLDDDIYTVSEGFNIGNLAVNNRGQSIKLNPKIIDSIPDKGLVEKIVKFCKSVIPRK

[6] = reduction of Shn3 3'UTR-driven luciferase in osteoblasts – cell-based, Clone20 osteoblasts, firefly luciferase, cherry-picked, dose response (AID 624132); assay type: functional;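 further: firefly luciferase luminescence from reporter carrying the Shn3 3'UTR in osteoblasts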
[7] = Fluorescence-based cell-based high throughput dose response assay for inhibitors of the interaction of nucleotide-binding oligomerization domain containing 2 (NOD2) and the receptor-interacting serine-threonine kinase 2 (RIPK2).; assay type: functional; settings: Homo sapiens
HEK293 [8] = assay: cells; settings: Homo sapiens
[9] = target: T2, Heat shock factor protein 1 (Mus musculus, UniProt P38532); assay: enhancement of HSF1-driven luciferase signal – cell-based, NIH3T3, luminescence, dose retest, confirmation (AID 435004); assay type: functional;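 further: stress induced by proteasome inhibitor MG132 added 30 min after compound; luciferase reporter driven by HSF1 response element in NIH3T3 cells; actives raise luminescence as potentiators of the MG132 stress response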
T2 sequence (P38532 whole entry): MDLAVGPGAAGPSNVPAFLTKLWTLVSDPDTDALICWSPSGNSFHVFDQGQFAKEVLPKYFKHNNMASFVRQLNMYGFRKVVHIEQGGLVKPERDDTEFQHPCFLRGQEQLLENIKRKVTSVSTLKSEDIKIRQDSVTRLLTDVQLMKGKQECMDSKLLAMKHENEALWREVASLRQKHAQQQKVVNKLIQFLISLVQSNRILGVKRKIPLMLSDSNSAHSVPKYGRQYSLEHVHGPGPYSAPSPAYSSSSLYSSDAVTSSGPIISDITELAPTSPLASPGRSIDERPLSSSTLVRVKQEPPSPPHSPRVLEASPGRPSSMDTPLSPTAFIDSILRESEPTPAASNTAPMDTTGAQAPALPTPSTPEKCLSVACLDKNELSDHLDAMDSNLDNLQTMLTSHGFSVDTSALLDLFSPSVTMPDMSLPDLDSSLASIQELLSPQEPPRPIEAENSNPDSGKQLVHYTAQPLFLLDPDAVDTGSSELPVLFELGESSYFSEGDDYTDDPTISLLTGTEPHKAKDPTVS

Protein RecA = target: T3, Protein RecA (Mycobacterium tuberculosis, UniProt P9WHJ3); assay: Fluorescence Cell-Free Homogeneous Dose Retest to Identify Inhibitors of RecA-Intein Splicing Activity. [Related pubchem assays (depositor defined):AID2097, AID2223, AID489010, AID492950]; assay type: functional
T3 sequence (P9WHJ3 whole entry): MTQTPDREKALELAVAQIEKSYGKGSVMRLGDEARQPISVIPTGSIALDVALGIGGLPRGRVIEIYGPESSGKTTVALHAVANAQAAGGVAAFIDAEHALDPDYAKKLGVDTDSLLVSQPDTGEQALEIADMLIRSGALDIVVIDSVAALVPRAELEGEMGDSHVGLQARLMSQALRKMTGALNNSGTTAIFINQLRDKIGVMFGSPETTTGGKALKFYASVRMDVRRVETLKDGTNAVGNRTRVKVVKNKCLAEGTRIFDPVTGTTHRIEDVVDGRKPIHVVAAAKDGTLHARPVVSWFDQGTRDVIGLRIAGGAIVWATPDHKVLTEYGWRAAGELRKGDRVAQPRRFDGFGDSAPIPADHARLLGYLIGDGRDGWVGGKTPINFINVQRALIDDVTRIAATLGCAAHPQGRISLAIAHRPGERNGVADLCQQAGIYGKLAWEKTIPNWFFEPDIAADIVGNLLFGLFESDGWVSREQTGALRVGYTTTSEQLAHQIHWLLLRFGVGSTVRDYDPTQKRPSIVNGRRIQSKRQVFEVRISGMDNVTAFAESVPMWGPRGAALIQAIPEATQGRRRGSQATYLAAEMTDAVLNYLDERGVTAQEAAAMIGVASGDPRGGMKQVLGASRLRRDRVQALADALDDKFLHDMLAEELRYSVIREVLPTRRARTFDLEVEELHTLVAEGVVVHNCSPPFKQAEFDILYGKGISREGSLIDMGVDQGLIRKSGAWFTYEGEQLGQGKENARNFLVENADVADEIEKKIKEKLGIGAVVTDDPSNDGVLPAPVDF

[10] = target: FAD-linked sulfhydryl oxidase ALR (Homo sapiens, UniProt P55789); assay: ALR-catalysed DTT oxidation blockers – biochemical, H2O2 detection, luminescence, cherry-pick, dose response (AID 493248)
FAD-linked sulfhydryl oxidase ALR, sequence (P55789 whole entry): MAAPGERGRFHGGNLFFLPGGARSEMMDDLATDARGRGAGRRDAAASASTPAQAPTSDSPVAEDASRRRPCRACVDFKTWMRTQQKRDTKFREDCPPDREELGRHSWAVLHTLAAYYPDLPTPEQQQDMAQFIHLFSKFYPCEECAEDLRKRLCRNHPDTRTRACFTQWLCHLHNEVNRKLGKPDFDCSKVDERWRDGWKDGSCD

[11] = non-specific 3'UTR reporter inhibition in Clone20-Shn3RL – cell-based, Renilla luciferase, cherry-picked, counter-screen for Shn3 inhibitor project, dose response (AID 624133); assay type: functional
[12] = loss of viability in HepG2 cells – cell-based, CellTiter-Glo, cherry-picked, cytotoxicity control for Shn3 inhibitor project, dose response (AID 624134); assay type: functional
HEK293 [13] = assay: cells; settings: Homo sapiens; remark: listed apart in the source
[14] = target: T4, Replicative DNA helicase DnaB (Mycobacterium tuberculosis, UniProt P9WMR3); assay: DnaB intein splicing inhibitors, dose response, biochemical, cell-free fluorescence (AID 449749); assay type: functional
T4 sequence (P9WMR3 whole entry): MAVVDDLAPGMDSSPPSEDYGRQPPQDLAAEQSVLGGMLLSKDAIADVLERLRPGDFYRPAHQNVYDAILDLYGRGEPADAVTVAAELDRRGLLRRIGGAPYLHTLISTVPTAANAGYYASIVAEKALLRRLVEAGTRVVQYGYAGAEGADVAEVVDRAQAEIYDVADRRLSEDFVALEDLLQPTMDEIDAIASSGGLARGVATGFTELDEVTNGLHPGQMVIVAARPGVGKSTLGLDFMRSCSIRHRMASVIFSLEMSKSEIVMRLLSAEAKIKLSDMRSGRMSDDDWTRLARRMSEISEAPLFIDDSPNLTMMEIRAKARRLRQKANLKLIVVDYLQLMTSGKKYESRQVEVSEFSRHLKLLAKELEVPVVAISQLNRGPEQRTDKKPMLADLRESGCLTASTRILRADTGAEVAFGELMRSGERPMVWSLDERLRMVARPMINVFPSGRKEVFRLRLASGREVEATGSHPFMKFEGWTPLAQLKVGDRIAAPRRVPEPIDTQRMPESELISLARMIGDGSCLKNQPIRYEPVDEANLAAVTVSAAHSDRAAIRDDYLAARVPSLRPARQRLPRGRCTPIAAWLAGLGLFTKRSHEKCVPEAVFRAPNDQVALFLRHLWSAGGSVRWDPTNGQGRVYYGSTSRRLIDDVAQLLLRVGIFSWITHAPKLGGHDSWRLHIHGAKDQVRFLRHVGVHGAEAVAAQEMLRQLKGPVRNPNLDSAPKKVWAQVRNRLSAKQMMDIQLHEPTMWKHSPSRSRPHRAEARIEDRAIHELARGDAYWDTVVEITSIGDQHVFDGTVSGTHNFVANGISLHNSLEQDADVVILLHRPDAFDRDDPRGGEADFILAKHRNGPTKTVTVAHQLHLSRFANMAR

[15] = target: ATP-binding cassette sub-family B member 6 (Homo sapiens, UniProt Q9NP58); assay: ABCB6 transporter inhibitors, porphyrin accumulation, dose response, flow cytometry, K562-ABCB6 cells, cherry pick 02 (AID 624487); assay type: functional; settings: read-out: EC50_MICROM
ATP-binding cassette sub-family B member 6, sequence (Q9NP58 whole entry): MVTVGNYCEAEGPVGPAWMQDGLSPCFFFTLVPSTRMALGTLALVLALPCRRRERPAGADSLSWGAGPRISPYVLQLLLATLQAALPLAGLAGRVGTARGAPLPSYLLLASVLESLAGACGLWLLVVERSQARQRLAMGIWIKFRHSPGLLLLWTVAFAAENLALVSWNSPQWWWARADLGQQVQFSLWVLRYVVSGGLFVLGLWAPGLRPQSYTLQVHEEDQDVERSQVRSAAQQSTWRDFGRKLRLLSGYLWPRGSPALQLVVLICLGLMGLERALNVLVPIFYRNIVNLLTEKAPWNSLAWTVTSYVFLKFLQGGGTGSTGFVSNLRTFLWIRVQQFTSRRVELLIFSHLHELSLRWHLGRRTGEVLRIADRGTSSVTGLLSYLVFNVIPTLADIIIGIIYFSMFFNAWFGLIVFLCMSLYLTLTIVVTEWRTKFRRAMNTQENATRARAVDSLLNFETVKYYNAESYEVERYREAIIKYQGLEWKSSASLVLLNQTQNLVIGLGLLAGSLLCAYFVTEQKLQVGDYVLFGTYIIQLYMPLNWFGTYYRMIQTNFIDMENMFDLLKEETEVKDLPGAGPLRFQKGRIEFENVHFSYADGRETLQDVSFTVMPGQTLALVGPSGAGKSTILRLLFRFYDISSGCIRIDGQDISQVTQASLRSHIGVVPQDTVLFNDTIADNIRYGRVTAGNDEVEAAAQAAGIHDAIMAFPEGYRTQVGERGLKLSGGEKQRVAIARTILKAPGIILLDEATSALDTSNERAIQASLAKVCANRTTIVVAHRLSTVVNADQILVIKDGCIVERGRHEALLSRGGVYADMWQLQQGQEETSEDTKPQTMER

In the case of `COc1ccc(-c2nc(C#N)c(NCC3CCCO3)o2)cc1` (stereo unspecified), the EC50 [1] is reported as > 91.1 µM (inactive) and the EC50 [2] is reported as > 91.1 µM (inactive).
For `COCC(=O)N1CCc2cc(-c3csc(NC(=O)c4cc(OC)cc(OC)c4)n3)ccc21`, the AC50 [3] was 0.00684 µM (active) and the AC50 [4] was 0.00538 µM (active).
For `Cc1cc2cc(CNC(=O)c3ccc(S(=O)(=O)N4CCCCC4)cc3)ccc2[nH]1`, the EC50 [5] was > 20 µM (inactive).
For `Cc1cccc(C)c1NC(=O)c1nc(S(=O)(=O)Cc2ccccc2)ncc1Cl`, the AC50 [6] was 4.33 µM (active), the IC50 [7] was 4.11 µM (active) and the EC50 (HEK293 [8]) was > 59.6 µM (inactive). For the same molecule, the EC50 [9] was 9.13 µM (active), the EC50 (Protein RecA) was 6.63 µM (active) and the AC50 [10] was 1.74 µM (active). The AC50 [11] was 10.6 µM (active), the AC50 [12] was 22.9 µM (active) and the EC50 (HEK293 [13]) was > 59.6 µM (inactive). The AC50 [14] was 4.34 µM (active) and the EC50 [15] was 38.1 µM (active).
